Data reported in patent US9156845B2, “4-(substituted amino)-7H-pyrrolo[2,3-d] pyrimidines as LRRK2 inhibitors” (Pfizer Inc., priority 2012, dated 2015).

Columns and labels:
ZAP70 = ZAP70 (Homo sapiens (Human), UniProt P43403); experiment: ActivX kinase probe assay (human PBMC); type: binding; settings: ZAP70, read-out: percent inhibition
PCTAIRE2, PCTAIRE3 = experiment: ActivX kinase probe assay (human PBMC); type: binding
PKR = PKR (Homo sapiens (Human), UniProt P19525); experiment: ActivX kinase probe assay (human PBMC); type: binding; settings: PKR, read-out: percent inhibition
RSK1 domain1 = RSK1 domain1 (Homo sapiens (Human), UniProt Q15418); experiment: ActivX kinase probe assay (human PBMC); type: binding; settings: RSK1 domain1, read-out: percent inhibition
BTK = BTK (Homo sapiens (Human), UniProt Q06187); experiment: ActivX kinase probe assay (human PBMC); type: binding; settings: BTK, read-out: percent inhibition
mutant G2019S LRRK2 = mutant G2019S LRRK2 (Homo sapiens (Human), UniProt Q5S007, G2019S); experiment: LRRK2 Lantha Screen kinase assay, mutant enzyme; type: biochemical; settings: geometric mean of 2-5 determinations unless otherwise indicated (a: >=6 determinations; b: single determination)
RSKL1 domain1 = RSKL1 domain1 (Homo sapiens (Human), UniProt Q96S38); experiment: ActivX kinase probe assay (human PBMC); type: binding; settings: RSKL1 domain1, read-out: percent inhibition
Sequence of RSKL1 domain1 (Q96S38 whole entry, the tested form may be a part): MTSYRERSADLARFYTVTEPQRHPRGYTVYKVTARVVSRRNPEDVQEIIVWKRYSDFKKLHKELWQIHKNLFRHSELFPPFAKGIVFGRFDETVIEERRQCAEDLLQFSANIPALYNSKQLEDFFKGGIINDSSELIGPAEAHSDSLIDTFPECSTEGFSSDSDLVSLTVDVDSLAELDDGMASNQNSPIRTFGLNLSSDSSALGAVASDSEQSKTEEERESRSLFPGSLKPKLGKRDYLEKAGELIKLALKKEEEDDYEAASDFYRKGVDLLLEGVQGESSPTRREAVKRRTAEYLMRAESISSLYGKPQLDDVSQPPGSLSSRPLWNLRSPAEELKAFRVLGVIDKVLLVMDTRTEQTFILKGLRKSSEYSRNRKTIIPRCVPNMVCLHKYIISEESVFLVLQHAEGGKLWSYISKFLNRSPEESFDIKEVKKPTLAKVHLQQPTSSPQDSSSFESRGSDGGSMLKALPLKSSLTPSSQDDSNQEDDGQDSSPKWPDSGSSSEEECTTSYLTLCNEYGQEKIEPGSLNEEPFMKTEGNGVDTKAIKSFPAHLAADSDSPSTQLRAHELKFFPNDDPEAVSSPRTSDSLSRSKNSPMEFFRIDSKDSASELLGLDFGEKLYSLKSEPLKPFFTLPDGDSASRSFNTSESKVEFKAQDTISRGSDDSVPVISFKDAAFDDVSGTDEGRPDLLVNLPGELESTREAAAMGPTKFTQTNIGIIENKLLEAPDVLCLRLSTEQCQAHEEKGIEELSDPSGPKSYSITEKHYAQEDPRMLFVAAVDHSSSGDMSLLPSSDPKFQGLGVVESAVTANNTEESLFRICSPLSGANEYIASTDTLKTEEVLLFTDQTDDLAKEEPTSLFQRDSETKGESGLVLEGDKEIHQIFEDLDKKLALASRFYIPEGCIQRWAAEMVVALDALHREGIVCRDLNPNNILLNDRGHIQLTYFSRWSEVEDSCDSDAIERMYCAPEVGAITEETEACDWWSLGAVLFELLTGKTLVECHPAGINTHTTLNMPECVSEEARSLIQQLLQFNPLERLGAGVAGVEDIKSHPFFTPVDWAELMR

PI4KB = PI4KB (Homo sapiens (Human), UniProt Q9UBF8); experiment: ActivX kinase probe assay (human PBMC); type: binding; settings: PI4KB, read-out: percent inhibition
Sequence of PI4KB (Q9UBF8 whole entry): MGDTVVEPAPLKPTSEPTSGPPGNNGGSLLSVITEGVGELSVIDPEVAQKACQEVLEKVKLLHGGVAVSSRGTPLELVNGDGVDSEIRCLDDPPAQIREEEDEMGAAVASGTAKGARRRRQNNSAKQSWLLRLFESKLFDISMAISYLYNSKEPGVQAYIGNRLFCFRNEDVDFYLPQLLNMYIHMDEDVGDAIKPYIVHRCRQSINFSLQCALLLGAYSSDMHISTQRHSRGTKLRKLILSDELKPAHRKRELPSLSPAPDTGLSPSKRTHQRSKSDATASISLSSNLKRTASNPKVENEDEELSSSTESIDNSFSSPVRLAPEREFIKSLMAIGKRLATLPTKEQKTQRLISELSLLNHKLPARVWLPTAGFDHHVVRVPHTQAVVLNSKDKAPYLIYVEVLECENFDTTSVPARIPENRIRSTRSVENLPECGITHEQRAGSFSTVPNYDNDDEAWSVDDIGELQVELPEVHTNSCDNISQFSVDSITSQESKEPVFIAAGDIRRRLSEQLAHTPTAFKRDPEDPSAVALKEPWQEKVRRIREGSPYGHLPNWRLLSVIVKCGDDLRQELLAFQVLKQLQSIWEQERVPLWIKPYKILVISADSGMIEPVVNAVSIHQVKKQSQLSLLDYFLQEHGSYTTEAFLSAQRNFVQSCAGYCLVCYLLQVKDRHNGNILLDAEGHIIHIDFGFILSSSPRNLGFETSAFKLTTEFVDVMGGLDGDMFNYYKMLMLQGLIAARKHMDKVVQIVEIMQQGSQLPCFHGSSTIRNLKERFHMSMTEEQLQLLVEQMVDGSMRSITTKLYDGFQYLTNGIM

CDK5 = CDK5 (Homo sapiens (Human), UniProt Q00535); experiment: ActivX kinase probe assay (human PBMC); type: binding; settings: CDK5, read-out: percent inhibition
Sequence of CDK5 (Q00535 whole entry): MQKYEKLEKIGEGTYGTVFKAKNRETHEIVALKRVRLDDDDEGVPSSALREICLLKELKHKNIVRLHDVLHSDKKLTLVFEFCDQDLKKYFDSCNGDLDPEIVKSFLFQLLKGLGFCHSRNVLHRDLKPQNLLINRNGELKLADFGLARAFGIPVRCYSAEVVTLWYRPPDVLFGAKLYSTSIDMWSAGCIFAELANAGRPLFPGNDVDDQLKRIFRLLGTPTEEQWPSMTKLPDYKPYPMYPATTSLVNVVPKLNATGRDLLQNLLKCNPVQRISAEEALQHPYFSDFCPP

p38a = p38a (Homo sapiens (Human), UniProt Q16539); experiment: ActivX kinase probe assay (human PBMC); type: binding; settings: p38a, read-out: percent inhibition
JAK2 domain2 = JAK2 domain2 (Homo sapiens (Human), UniProt O60674); experiment: ActivX kinase probe assay (human PBMC); type: binding; settings: JAK2 domain2, read-out: percent inhibition
IKKb = IKKb (Homo sapiens (Human), UniProt O14920); experiment: ActivX kinase probe assay (human PBMC); type: binding; settings: IKKb, read-out: percent inhibition
RIPK3 = RIPK3 (Homo sapiens (Human), UniProt Q9Y572); experiment: ActivX kinase probe assay (human PBMC); type: binding; settings: RIPK3, read-out: percent inhibition
AKT1 = AKT1 (Homo sapiens (Human), UniProt P31749); experiment: ActivX kinase probe assay (human PBMC); type: binding; settings: AKT1, read-out: percent inhibition
Sequence of AKT1 (P31749 whole entry): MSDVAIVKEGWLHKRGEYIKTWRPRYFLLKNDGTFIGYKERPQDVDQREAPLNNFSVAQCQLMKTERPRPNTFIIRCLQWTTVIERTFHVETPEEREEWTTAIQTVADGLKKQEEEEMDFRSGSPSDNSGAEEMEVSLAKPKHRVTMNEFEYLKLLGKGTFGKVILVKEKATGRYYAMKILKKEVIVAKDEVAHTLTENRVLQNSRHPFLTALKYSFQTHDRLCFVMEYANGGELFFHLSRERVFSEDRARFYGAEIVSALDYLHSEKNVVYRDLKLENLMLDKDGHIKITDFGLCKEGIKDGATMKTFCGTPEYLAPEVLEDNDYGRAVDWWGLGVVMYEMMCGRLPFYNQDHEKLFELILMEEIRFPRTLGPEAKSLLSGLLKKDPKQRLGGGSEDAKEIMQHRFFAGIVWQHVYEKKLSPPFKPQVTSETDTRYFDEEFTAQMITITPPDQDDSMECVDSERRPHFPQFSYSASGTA

FRAP = FRAP (Homo sapiens (Human), UniProt P42345); experiment: ActivX kinase probe assay (human PBMC); type: binding; settings: FRAP, read-out: percent inhibition
[1] = system: ZC1/HGK, ZC2/TNIK, ZC3/MINK; experiment: ActivX kinase probe assay (human PBMC); type: binding
MST4, YSK1 = experiment: ActivX kinase probe assay (human PBMC); type: binding
CaMK1d = CaMK1d (Homo sapiens (Human), UniProt Q8IU85); experiment: ActivX kinase probe assay (human PBMC); type: binding; settings: CaMK1d, read-out: percent inhibition
Sequence of CaMK1d (Q8IU85 whole entry): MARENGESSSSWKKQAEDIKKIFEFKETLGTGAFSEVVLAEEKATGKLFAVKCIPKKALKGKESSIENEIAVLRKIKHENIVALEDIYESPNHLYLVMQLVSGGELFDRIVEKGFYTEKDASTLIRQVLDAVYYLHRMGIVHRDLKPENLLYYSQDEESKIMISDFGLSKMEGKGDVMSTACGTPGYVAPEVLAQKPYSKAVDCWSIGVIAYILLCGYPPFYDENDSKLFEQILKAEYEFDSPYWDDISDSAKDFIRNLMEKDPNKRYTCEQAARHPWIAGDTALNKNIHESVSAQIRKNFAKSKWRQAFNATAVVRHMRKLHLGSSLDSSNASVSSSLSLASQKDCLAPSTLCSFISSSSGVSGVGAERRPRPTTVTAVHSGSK

LATS2 = LATS2 (Homo sapiens (Human), UniProt Q9NRM7); experiment: ActivX kinase probe assay (human PBMC); type: binding; settings: LATS2, read-out: percent inhibition
LYN = LYN (Homo sapiens (Human), UniProt P07948); experiment: ActivX kinase probe assay (human PBMC); type: binding; settings: LYN, read-out: percent inhibition
LOK = LOK (Homo sapiens (Human), UniProt O94804); experiment: ActivX kinase probe assay (human PBMC); type: binding; settings: LOK, read-out: percent inhibition
Sequence of LOK (O94804 whole entry): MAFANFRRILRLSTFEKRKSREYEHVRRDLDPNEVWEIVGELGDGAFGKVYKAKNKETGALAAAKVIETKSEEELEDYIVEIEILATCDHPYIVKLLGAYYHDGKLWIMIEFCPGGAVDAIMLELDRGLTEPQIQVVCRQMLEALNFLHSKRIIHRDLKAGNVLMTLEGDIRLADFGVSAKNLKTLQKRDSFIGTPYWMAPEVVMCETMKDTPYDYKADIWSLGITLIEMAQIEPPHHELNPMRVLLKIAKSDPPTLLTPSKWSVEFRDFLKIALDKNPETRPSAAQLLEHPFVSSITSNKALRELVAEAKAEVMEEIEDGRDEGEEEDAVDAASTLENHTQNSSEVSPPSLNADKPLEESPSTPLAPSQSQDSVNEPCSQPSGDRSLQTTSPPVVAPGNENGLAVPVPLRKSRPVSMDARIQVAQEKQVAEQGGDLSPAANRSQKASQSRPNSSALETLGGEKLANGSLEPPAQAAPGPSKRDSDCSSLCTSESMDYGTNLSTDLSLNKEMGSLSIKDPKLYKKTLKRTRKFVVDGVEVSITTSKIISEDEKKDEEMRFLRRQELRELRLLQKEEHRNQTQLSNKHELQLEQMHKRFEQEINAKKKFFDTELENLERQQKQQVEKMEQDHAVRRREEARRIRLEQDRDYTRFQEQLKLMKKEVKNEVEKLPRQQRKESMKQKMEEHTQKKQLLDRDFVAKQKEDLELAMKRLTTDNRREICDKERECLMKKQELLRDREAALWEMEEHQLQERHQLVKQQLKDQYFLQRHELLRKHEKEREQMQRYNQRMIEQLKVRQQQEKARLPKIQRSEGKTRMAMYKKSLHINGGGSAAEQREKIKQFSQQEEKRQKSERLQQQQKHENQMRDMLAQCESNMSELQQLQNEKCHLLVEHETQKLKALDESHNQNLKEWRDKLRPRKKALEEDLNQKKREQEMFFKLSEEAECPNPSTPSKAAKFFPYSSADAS

TBK1 = TBK1 (Homo sapiens (Human), UniProt Q9UHD2); experiment: ActivX kinase probe assay (human PBMC); type: binding; settings: TBK1, read-out: percent inhibition
eEF2K = eEF2K (Homo sapiens (Human), UniProt O00418); experiment: ActivX kinase probe assay (human PBMC); type: binding; settings: eEF2K, read-out: percent inhibition
PIK3C3 = PIK3C3 (Homo sapiens (Human), UniProt Q8NEB9); experiment: ActivX kinase probe assay (human PBMC); type: binding; settings: PIK3C3, read-out: percent inhibition
FAK = FAK (Homo sapiens (Human), UniProt Q05397); experiment: ActivX kinase probe assay (human PBMC); type: binding; settings: FAK, read-out: percent inhibition
GSK3A = GSK3A (Homo sapiens (Human), UniProt P49840); experiment: ActivX kinase probe assay (human PBMC); type: binding; settings: GSK3A, read-out: percent inhibition
MSK1 domain1 = MSK1 domain1 (Homo sapiens (Human), UniProt O75582); experiment: ActivX kinase probe assay (human PBMC); type: binding; settings: MSK1 domain1, read-out: percent inhibition
PIP4K2A = PIP4K2A (Homo sapiens (Human), UniProt P48426); experiment: ActivX kinase probe assay (human PBMC); type: binding; settings: PIP4K2A, read-out: percent inhibition
Sequence of PIP4K2A (P48426 whole entry): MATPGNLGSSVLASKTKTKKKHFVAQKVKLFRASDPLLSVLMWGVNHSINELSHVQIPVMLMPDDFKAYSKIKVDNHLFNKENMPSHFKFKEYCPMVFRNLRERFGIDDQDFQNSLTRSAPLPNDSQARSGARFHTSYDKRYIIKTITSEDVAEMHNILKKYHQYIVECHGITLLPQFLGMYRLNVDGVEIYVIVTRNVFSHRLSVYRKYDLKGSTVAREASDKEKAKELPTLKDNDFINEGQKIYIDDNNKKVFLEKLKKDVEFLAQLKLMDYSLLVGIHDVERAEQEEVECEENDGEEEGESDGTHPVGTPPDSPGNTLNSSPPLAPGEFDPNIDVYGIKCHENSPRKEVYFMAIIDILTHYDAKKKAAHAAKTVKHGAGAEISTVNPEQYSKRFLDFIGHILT

TLK2 = TLK2 (Homo sapiens (Human), UniProt Q86UE8); experiment: ActivX kinase probe assay (human PBMC); type: binding; settings: TLK2, read-out: percent inhibition
MARK3 = MARK3 (Homo sapiens (Human), UniProt P27448); experiment: ActivX kinase probe assay (human PBMC); type: binding; settings: MARK3, read-out: percent inhibition
Wnk1, Wnk2, Wnk3 = experiment: ActivX kinase probe assay (human PBMC); type: binding
NDR2 = NDR2 (Homo sapiens (Human), UniProt Q9Y2H1); experiment: ActivX kinase probe assay (human PBMC); type: binding; settings: NDR2, read-out: percent inhibition
SMG1 = SMG1 (Homo sapiens (Human), UniProt Q96Q15); experiment: ActivX kinase probe assay (human PBMC); type: binding; settings: SMG1, read-out: percent inhibition
ULK3 = ULK3 (Homo sapiens (Human), UniProt Q6PHR2); experiment: ActivX kinase probe assay (human PBMC); type: binding; settings: ULK3, read-out: percent inhibition
p38d, p38g = experiment: ActivX kinase probe assay (human PBMC); type: binding

Sequence of ZAP70 (P43403 whole entry): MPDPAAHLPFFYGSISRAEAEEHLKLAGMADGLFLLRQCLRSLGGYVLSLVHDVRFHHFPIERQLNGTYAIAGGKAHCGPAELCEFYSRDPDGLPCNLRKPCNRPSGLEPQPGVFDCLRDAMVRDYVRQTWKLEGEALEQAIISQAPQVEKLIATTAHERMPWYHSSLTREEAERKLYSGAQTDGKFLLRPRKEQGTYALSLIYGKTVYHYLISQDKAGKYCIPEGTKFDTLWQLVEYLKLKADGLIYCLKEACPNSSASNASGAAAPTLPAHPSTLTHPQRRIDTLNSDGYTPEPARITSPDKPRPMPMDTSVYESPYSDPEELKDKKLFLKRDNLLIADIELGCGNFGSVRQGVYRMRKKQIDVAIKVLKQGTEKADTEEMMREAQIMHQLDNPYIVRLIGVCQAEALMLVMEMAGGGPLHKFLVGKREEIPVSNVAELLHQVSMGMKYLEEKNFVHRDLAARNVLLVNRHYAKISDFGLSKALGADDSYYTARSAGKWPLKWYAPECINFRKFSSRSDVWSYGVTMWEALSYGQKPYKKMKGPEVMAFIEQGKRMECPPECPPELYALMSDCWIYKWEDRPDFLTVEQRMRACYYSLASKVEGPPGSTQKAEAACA

Structure (SMILES): Cn1cc(-c2c[nH]c3ncnc(N4CCOCC4)c23)cn1 [Example 1, 5-(1-Methyl-1H-pyrazol-4-yl)-4-(morpholin-4-yl)-7H-pyrrolo[2,3-d]pyrimidine]
- inhibition at 0.1 µM (ZAP70; 0.1 μM): -23.2%
- inhibition at 1 µM (ZAP70; 1 μM): 3.1%
- percent inhibition (PCTAIRE2, PCTAIRE3; 0.1 μM): 7.5%
- percent inhibition (PCTAIRE2, PCTAIRE3; 1 μM): −2.5%
- inhibition at 0.1 µM (PKR; 0.1 μM): -4.3%
- inhibition at 1 µM (PKR; 1 μM): -17.3%
- inhibition at 0.1 µM (RSK1 domain1; 0.1 μM): 16.3%
- inhibition at 1 µM (RSK1 domain1; 1 μM): 59.8%
- inhibition at 0.1 µM (BTK; 0.1 μM): 8.7%
- inhibition at 1 µM (BTK; 1 μM): 3.7%
- IC50 (mutant G2019S LRRK2): 36 nM
- inhibition at 0.1 µM (RSKL1 domain1; 0.1 μM): 5.5%
- inhibition at 1 µM (RSKL1 domain1; 1 μM): -0.2%
- inhibition at 0.1 µM (PI4KB; 0.1 μM): 34%
- inhibition at 1 µM (PI4KB; 1 μM): 16.1%
- inhibition at 0.1 µM (CDK5; 0.1 μM): -6.5%
- inhibition at 1 µM (CDK5; 1 μM): -35.1%
- inhibition at 0.1 µM (p38a; 0.1 μM): -23.5%
- inhibition at 1 µM (p38a; 1 μM): -19.8%
- inhibition at 0.1 µM (JAK2 domain2; 0.1 μM): 13.8%
- inhibition at 1 µM (JAK2 domain2; 1 μM): 16.7%
- inhibition at 0.1 µM (IKKb; 0.1 μM): 16.1%
- inhibition at 1 µM (IKKb; 1 μM): 10.8%
- inhibition at 0.1 µM (RIPK3; 0.1 μM): 5.6%
- inhibition at 1 µM (RIPK3; 1 μM): -4.2%
- inhibition at 0.1 µM (AKT1; 0.1 μM): 11.3%
- inhibition at 1 µM (AKT1; 1 μM): 18.8%
- inhibition at 0.1 µM (FRAP; 0.1 μM): -3.2%
- inhibition at 1 µM (FRAP; 1 μM): -1.2%
- percent inhibition ([1]; 0.1 μM): −18%
- percent inhibition ([1]; 1 μM): 4.9%
- percent inhibition (MST4, YSK1; 0.1 μM): −11.4%
- percent inhibition (MST4, YSK1; 1 μM): 15.1%
- inhibition at 0.1 µM (CaMK1d; 0.1 μM): 8.4%
- inhibition at 1 µM (CaMK1d; 1 μM): 3.2%
- inhibition at 0.1 µM (LATS2; 0.1 μM): 21.2%
- inhibition at 1 µM (LATS2; 1 μM): 11%
- inhibition at 0.1 µM (LYN; 0.1 μM): 3.8%
- inhibition at 1 µM (LYN; 1 μM): 7.8%
- inhibition at 0.1 µM (LOK; 0.1 μM): 5.7%
- inhibition at 1 µM (LOK; 1 μM): 22.6%
- inhibition at 0.1 µM (TBK1; 0.1 μM): 0.1%
- inhibition at 1 µM (TBK1; 1 μM): 13.4%
- inhibition at 0.1 µM (eEF2K; 0.1 μM): -9.6%
- inhibition at 1 µM (eEF2K; 1 μM): -6.5%
- inhibition at 0.1 µM (PIK3C3; 0.1 μM): 23.3%
- inhibition at 1 µM (PIK3C3; 1 μM): 4.8%
- inhibition at 0.1 µM (FAK; 0.1 μM): 18%
- inhibition at 1 µM (FAK; 1 μM): 20%
- inhibition at 0.1 µM (GSK3A; 0.1 μM): -0.2%
- inhibition at 1 µM (GSK3A; 1 μM): -11.4%
- inhibition at 0.1 µM (MSK1 domain1; 0.1 μM): -7%
- inhibition at 1 µM (MSK1 domain1; 1 μM): -30.4%
- inhibition at 0.1 µM (PIP4K2A; 0.1 μM): 12.1%
- inhibition at 1 µM (PIP4K2A; 1 μM): 6.8%
- inhibition at 0.1 µM (TLK2; 0.1 μM): -5.8%
- inhibition at 1 µM (TLK2; 1 μM): -21.1%
- inhibition at 0.1 µM (MARK3; 0.1 μM): 1%
- inhibition at 1 µM (MARK3; 1 μM): 29.1%
- percent inhibition (Wnk1, Wnk2, Wnk3; 0.1 μM): −18.8%
- percent inhibition (Wnk1, Wnk2, Wnk3; 1 μM): −24%
- inhibition at 0.1 µM (NDR2; 0.1 μM): 22.8%
- inhibition at 1 µM (NDR2; 1 μM): 31.2%
- inhibition at 0.1 µM (SMG1; 0.1 μM): -1.3%
- inhibition at 1 µM (SMG1; 1 μM): -19.2%
- inhibition at 0.1 µM (ULK3; 0.1 μM): -1.9%
- inhibition at 1 µM (ULK3; 1 μM): 8%
- percent inhibition (p38d, p38g; 0.1 μM): −37.3%
- percent inhibition (p38d, p38g; 1 μM): −24%
